This is an account of results in ChEMBL document CHEMBL1201862, “PubChem BioAssay data set” (2004).

Molecules are shown by their SMILES.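 Each compound was tested at five concentrations against cells in 96-well plates for 48 hours. Here, GI50 denotes the concentration required for 50% inhibition of growth.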 Activity calls are given as the source filed them. Rule as the data show it: active = GI50 up to about 1.1 µM and inactive = higher.

Some test systems named below: 786-0; CAKI-1; COLO 205; HL-60; HT-29; Hs-578T; LOX IMVI; M14; MCF7; NCI-H226; NCI-H23; OVCAR-3; PC-3; RPMI-8226; RXF 393; SF-295; SNB-19; SR; UACC-257; UACC-62.
Common to all, as to assay: growth of human tumour cells (NCI), 48 h

On to `O=C(/C=C/c1ccc(O)c(O)c1O)OCCc1ccccc1`, for which the GI50 in the assay on 786-0 is 16 µM (inactive); in the assay on CAKI-1, > 100 µM (inactive); with COLO 205 it was 27.8 µM (inactive); with HL-60, 22 µM (inactive); in the assay on HT-29, 22.7 µM (inactive); with Hs-578T, > 100 µM (inactive). In addition, the GI50 in the assay on LOX IMVI is 15.2 µM (inactive); with M14 it was 20 µM (inactive); in the assay on MCF7, 14.5 µM (inactive); with NCI-H226, 27.7 µM (inactive); in the assay with NCI-H23 it was 22.9 µM (inactive); with OVCAR-3 it was 21.6 µM (inactive). For the same compound, the GI50 with PC-3 is 48.9 µM (inactive); in the assay with RPMI-8226 it was 21.2 µM (inactive); in the assay on RXF 393, 36.1 µM (inactive); in the assay on SF-295, 19.2 µM (inactive); with SNB-19 it was 49.9 µM (inactive); in the assay on SR, 15.8 µM (inactive). Further, the GI50 was > 100 µM (inactive) with UACC-257 and 34 µM (inactive) in the assay on UACC-62.
With `CCCN(CCCCC(NC(C)=O)C(=O)NCc1ccccc1)C(=O)N(CCCl)N=O` (stereo not given), the GI50 in the assay on 786-0 is 2.33 µM (inactive); in the assay with CAKI-1 it was > 79.8 µM (inactive); in the assay with COLO 205 it was > 90.2 µM (inactive); in the assay on HL-60, 22.3 µM (inactive); in the assay on HT-29 it was > 96.6 µM (inactive); in the assay with Hs-578T it was 42.1 µM (inactive). Also, the GI50 is 22.9 µM (inactive) in the assay with LOX IMVI; 59.6 µM (inactive) in the assay on M14; 40 µM (inactive) with MCF7; > 77.8 µM (inactive) in the assay on NCI-H226; 49.9 µM (inactive) in the assay on NCI-H23; > 100 µM (inactive) in the assay on OVCAR-3. The GI50 in the assay with PC-3 was 32.8 µM (inactive); in the assay with RPMI-8226, 98.2 µM (inactive); with RXF 393, 66.1 µM (inactive); in the assay on SF-295, 20.9 µM (inactive); in the assay on SNB-19 it was 31.9 µM (inactive); in the assay on SR, 19.3 µM (inactive). The GI50 in the assay with UACC-257 is > 100 µM (inactive); with UACC-62, 11.7 µM (inactive).
In the case of `C=C1C(=O)O[C@@H]2[C@H]1C[C@H](I)[C@@]1(C)CC[C@H](O1)[C@](C)(I)CCCC(C)[C@@H]2O` (stereo not given in full), the GI50 was 1.49 µM (inactive) with 786-0; 1.96 µM (inactive) with CAKI-1; 2.21 µM (inactive) with COLO 205; 1.31 µM (inactive) with HL-60; 1.93 µM (inactive) with HT-29; 14.6 µM (inactive) with Hs-578T. Further, the GI50 is 1.32 µM (inactive) in the assay on LOX IMVI; 4.68 µM (inactive) in the assay with M14; 2.29 µM (inactive) in the assay on MCF7; 1.91 µM (inactive) in the assay on NCI-H226; 7.43 µM (inactive) in the assay on NCI-H23; 2.64 µM (inactive) in the assay with OVCAR-3. The GI50 is 6.03 µM (inactive) in the assay with PC-3; 2.61 µM (inactive) in the assay with RPMI-8226; 1.69 µM (inactive) in the assay with RXF 393; 16 µM (inactive) in the assay with SF-295; 16.4 µM (inactive) with SNB-19; 2 µM (inactive) with SR. In addition, the GI50 in the assay with UACC-257 is 6.1 µM (inactive); with UACC-62, 4.92 µM (inactive).
Consider `CC(Oc1ccc(Cl)cc1Cl)C(=O)NN1C(=O)CC(=O)N(c2ccccc2)C1=S` (stereo not given), for which the GI50 in the assay on 786-0 is 60.3 µM (inactive); with CAKI-1, 53.6 µM (inactive); in the assay with COLO 205, 33.7 µM (inactive); in the assay on HL-60, 0.527 µM (active); in the assay on HT-29, 70.1 µM (inactive); in the assay with Hs-578T, > 100 µM (inactive). For the same compound, the GI50 was 55 µM (inactive) with LOX IMVI; 73.3 µM (inactive) in the assay with M14; 35.5 µM (inactive) in the assay on MCF7; 37.8 µM (inactive) with NCI-H226; 37.2 µM (inactive) with NCI-H23; 42.5 µM (inactive) with OVCAR-3. Besides, the GI50 in the assay on PC-3 was 40.5 µM (inactive); in the assay on RPMI-8226 it was 30.7 µM (inactive); in the assay with RXF 393 it was 41 µM (inactive); with SF-295, 43.4 µM (inactive); in the assay on SNB-19, 66.4 µM (inactive); in the assay with SR it was 4.67 µM (inactive). The GI50 in the assay with UACC-257 is 74.6 µM (inactive); in the assay on UACC-62, 37.5 µM (inactive).
`O=C1Oc2ccccc2C1C/C(=N\Nc1ccccc1)c1ccccc1O` (stereo not given): the GI50 in the assay with 786-0 is 36.1 µM (inactive); in the assay on CAKI-1 it was 25.6 µM (inactive); with COLO 205 it was 15 µM (inactive); in the assay on HL-60 it was 34.2 µM (inactive); with HT-29 it was 28.4 µM (inactive); in the assay on Hs-578T it was 74.5 µM (inactive). Moreover, the GI50 in the assay on LOX IMVI was 11.5 µM (inactive); in the assay with M14, 50.8 µM (inactive); in the assay with MCF7 it was 36.5 µM (inactive); in the assay with NCI-H226, 28.8 µM (inactive); in the assay with NCI-H23, 22.2 µM (inactive); in the assay on OVCAR-3, 32.8 µM (inactive). The GI50 was 30.2 µM (inactive) in the assay on PC-3; 45.2 µM (inactive) in the assay on RPMI-8226; 53.7 µM (inactive) in the assay on RXF 393; 33.7 µM (inactive) with SF-295; > 100 µM (inactive) in the assay on SNB-19; 27.4 µM (inactive) in the assay on SR. Further, the GI50 in the assay on UACC-257 was 28.8 µM (inactive); with UACC-62, 33.9 µM (inactive).
Regarding `C/C(=N/NC(=S)Nc1ccccc1Cl)c1ccccn1`, the GI50 in the assay on 786-0 was 0.0889 µM (active); in the assay with CAKI-1 it was 0.0675 µM (active); in the assay on COLO 205 it was < 0.0162 µM (active); in the assay on HL-60 it was < 0.0113 µM (active); in the assay with HT-29 it was < 0.01 µM (active); with Hs-578T, 8.53 µM (inactive). Further, the GI50 in the assay on LOX IMVI is 0.01 µM (active); in the assay on M14, < 0.0211 µM (active); in the assay with MCF7, < 0.0119 µM (active); in the assay on NCI-H226, < 0.0401 µM (active); in the assay with NCI-H23, < 0.0161 µM (active); in the assay with OVCAR-3, 0.0136 µM (active). For the same compound, the GI50 was < 0.0143 µM (active) with PC-3; < 0.0149 µM (active) in the assay with RPMI-8226; 1.41 µM (inactive) with RXF 393; 0.0986 µM (active) in the assay on SF-295; 1.79 µM (inactive) in the assay with SNB-19; < 0.0139 µM (active) in the assay with SR. Besides, the values for the GI50 in the assay on UACC-257 and in the assay on UACC-62 were < 0.0151 µM (active) and 0.173 µM (active), respectively.
In the case of `C/C(=C\CNc1nc(Cl)nc2[nH]cnc12)CO`, the GI50 in the assay on 786-0, in the assay on CAKI-1, in the assay on COLO 205, in the assay on HL-60, with HT-29 and in the assay on Hs-578T was > 100 µM (inactive) in each case. In addition, the GI50 in the assay with LOX IMVI, in the assay with M14, in the assay with MCF7, in the assay on NCI-H226, with NCI-H23 and in the assay with OVCAR-3 was > 100 µM (inactive) throughout. Also, the GI50 in the assay on PC-3, in the assay on RPMI-8226, in the assay with RXF 393, in the assay on SF-295, with SNB-19 and in the assay on SR was > 100 µM (inactive) each time. The GI50 in the assay on UACC-257 and in the assay with UACC-62 was > 100 µM (inactive) in each case.
`COc1cccc(-c2ccc3c4c2O[C@H]2C(=O)CC[C@@]5(O)[C@@H](C3)N(CC3CC3)CC[C@]425)c1`: the GI50 is 16.1 µM (inactive) with 786-0; 16.6 µM (inactive) in the assay on CAKI-1; 13 µM (inactive) in the assay with COLO 205; 19.1 µM (inactive) with HL-60; 11.6 µM (inactive) in the assay with HT-29; 12.3 µM (inactive) in the assay on Hs-578T. Besides, the GI50 was 16.3 µM (inactive) in the assay with LOX IMVI; 14.5 µM (inactive) in the assay on M14; 16 µM (inactive) in the assay with MCF7; 11.6 µM (inactive) with NCI-H226; 24.9 µM (inactive) in the assay on NCI-H23; 14.4 µM (inactive) in the assay on OVCAR-3. The GI50 in the assay with PC-3 was 13.4 µM (inactive); in the assay with RPMI-8226, 12.6 µM (inactive); with RXF 393, 8.53 µM (inactive); in the assay on SF-295, 18.4 µM (inactive); in the assay on SNB-19 it was 20.7 µM (inactive); in the assay on SR, 10.3 µM (inactive). Further, the figures for the GI50 in the assay with UACC-257 and with UACC-62 were 25.9 µM (inactive) and 17.1 µM (inactive), respectively.
Regarding `C[N+](C)([O-])CCC=C1c2ccccc2CCc2ccccc21`, the GI50 in the assay on 786-0 is 4.79 µM (inactive); in the assay with CAKI-1, 28.8 µM (inactive); in the assay with COLO 205, 20 µM (inactive); in the assay on HL-60, 12.6 µM (inactive); with HT-29 it was 22.3 µM (inactive); in the assay on Hs-578T, 25.6 µM (inactive). Further, the GI50 with LOX IMVI is 1.14 µM (inactive); with M14 it was 31 µM (inactive); with MCF7, 19.9 µM (inactive); with NCI-H226, 31.4 µM (inactive); in the assay on NCI-H23 it was 34.1 µM (inactive); in the assay with OVCAR-3 it was 23.6 µM (inactive). Further, the GI50 was 24.7 µM (inactive) in the assay with PC-3; 11.5 µM (inactive) with RPMI-8226; 20.5 µM (inactive) in the assay on RXF 393; 27.5 µM (inactive) with SF-295; 35.6 µM (inactive) in the assay on SNB-19; 16.7 µM (inactive) in the assay on SR. In addition, the GI50 in the assay with UACC-257 is 35.5 µM (inactive); with UACC-62, 17.1 µM (inactive).
`CCCCCCCCCCCCC(O)[C@H]1CC[C@H](C(O)CCCCCC(=O)CCCCC2CC(C(C)=O)C(=O)O2)O1` (stereo not given in full): the GI50 in the assay with 786-0 is 12.9 µM (inactive); with CAKI-1, 17.1 µM (inactive); in the assay with COLO 205, 6.3 µM (inactive); in the assay with HL-60 it was 2.12 µM (inactive); with HT-29, 6.73 µM (inactive); in the assay with Hs-578T, 15.4 µM (inactive). Moreover, the GI50 in the assay on LOX IMVI is 2.08 µM (inactive); with M14 it was 8.77 µM (inactive); with MCF7, 3.47 µM (inactive); with NCI-H226, 17.6 µM (inactive); in the assay on NCI-H23, 2.22 µM (inactive); with OVCAR-3, 4.25 µM (inactive). The GI50 with PC-3 is 4.95 µM (inactive); with RPMI-8226, 1.65 µM (inactive); in the assay with RXF 393 it was 7.6 µM (inactive); in the assay on SF-295 it was 4.95 µM (inactive); in the assay on SNB-19, 9.4 µM (inactive); with SR it was 0.0264 µM (active). Further, the GI50 with UACC-257 was 1.16 µM (inactive); in the assay with UACC-62, 4.67 µM (inactive).
